Experimental data from patent US6500853B1, “Inhibitors of phospholipase enzymes” (Genetics Institute, LLC, priority 1998, dated 2002).
Blank lines part the entries; values can stand above or below the compound they belong to.

Assays:
cPLA2 = biological target: T1, cPLA2 (Homo sapiens, UniProt P47712); experiment: Coumarin Assay (cPLA2 inhibition); format: biochemical; details: for inhibition at 12.5 µM: CONCENTRATION 12.5 micromolar; for inhibition at 50 µM: CONCENTRATION 50 micromolar; for inhibition at 100 µM: CONCENTRATION 100 micromolar; for inhibition at 400 µM: CONCENTRATION 400 micromolar
T1 sequence (P47712 1-749): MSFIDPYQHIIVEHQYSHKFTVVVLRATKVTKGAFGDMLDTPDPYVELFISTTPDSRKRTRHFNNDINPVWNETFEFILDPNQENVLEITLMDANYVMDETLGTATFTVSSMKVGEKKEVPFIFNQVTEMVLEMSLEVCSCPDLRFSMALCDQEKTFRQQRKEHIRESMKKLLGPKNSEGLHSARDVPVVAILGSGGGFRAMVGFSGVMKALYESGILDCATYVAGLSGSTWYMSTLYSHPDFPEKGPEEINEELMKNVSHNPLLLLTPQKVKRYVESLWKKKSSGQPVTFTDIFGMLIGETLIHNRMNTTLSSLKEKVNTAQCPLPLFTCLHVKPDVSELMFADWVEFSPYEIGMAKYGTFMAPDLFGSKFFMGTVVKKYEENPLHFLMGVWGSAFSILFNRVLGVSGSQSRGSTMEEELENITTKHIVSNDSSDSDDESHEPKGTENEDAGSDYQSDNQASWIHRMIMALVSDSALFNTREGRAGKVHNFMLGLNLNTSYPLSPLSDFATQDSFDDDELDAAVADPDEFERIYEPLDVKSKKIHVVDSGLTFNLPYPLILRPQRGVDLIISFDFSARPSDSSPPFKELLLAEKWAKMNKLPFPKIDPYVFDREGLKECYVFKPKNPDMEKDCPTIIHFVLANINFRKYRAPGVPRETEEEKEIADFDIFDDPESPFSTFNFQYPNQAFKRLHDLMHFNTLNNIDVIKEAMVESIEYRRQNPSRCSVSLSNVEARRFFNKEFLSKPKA
In short: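 Percent inhibition at the stated concentration, from the rate of 460 nm emission rise (360 nm excitation) per minute. Reaction started by adding 4 μg enzyme to compound and 60 μM 7-hydroxycoumarinyl 6-heptenoate in Hepes buffer pH 7.5 with 1 mM EDTA.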

[1] = test system: Rat Carrageenan-Induced Footpad Edema; experiment: Rat Carrageenan-Induced Footpad Edema Test; format: in vivo, male Sprague Dawley rats; details: footpad volume 3 hours after carrageenan; for inhibition in vivo at 2 mg/kg / inhibition in vivo at 10 mg/kg / inhibition in vivo at 5 mg/kg: Rattus norvegicus, 3 h, read-out: PERCENT INHIBITION; for inhibition in vivo at 2 mg/kg / inhibition in vivo at 10 mg/kg: po; for inhibition in vivo at 2 mg/kg / inhibition in vivo at 10 mg/kg / PERCENT INHIBITION: PO; for inhibition in vivo at 5 mg/kg: iv, IV

- inhibition at 19 µM (cPLA2; CONCENTRATION 19 micromolar, read-out: PERCENT INHIBITION @): 50%
- inhibition at 20 µM (cPLA2; CONCENTRATION 20 micromolar, read-out: PERCENT INHIBITION @): 50%
SMILES: O=C(Nc1ccc2c(c1)c(Cc1ccc(C(=O)O)cc1)cn2C(c1ccccc1)c1ccccc1)OC1CCCC1 [Example 52, 4-[(1-benzhydryl-5-{[(cyclopentyloxy)carbonyl]amino}-1H-indol-3-yl)methyl]benzoic acid]
- inhibition in vivo at 2 mg/kg ([1]; 2 mg/Kg): -6.75%
- inhibition in vivo at 10 mg/kg ([1]; 10 mg/Kg): 3.33%

- PERCENT INHIBITION @ (cPLA2; CONCENTRATION 11 micromolar): 50%
- PERCENT INHIBITION @ (cPLA2; CONCENTRATION 15.5 micromolar): 50%
SMILES: Cc1ccccc1S(=O)(=O)NC(=O)c1ccc(Cc2cn(C(c3ccccc3)c3ccccc3)c3ccc(NC(=O)OC4CCCC4)cc23)cc1 [Example 53, cyclopentyl N-{1-benzhydryl-3-[4-({[(2-methylphenyl)sulfonyl]1amino}carbonyl)benzyl]-1H-indol-5-yl}carbamate]
- PERCENT INHIBITION ([1]; 2 mg/Kg): −1.81%
- PERCENT INHIBITION ([1]; 10 mg/Kg): 11.35%

- PERCENT INHIBITION @ (cPLA2; CONCENTRATION 2.8 micromolar): 50%
- PERCENT INHIBITION @ (cPLA2; CONCENTRATION 3.9 micromolar): 50%
SMILES: O=C(Nc1ccc2c(c1)c(Cc1ccc(C(=O)NS(=O)(=O)C(F)(F)F)cc1)cn2C(c1ccccc1)c1ccccc1)OC1CCCC1 [Example 54]
- PERCENT INHIBITION ([1]; 2 mg/Kg): 2.47%
- PERCENT INHIBITION ([1]; 10 mg/Kg): 14.29%

- inhibition at 1.35 µM (cPLA2; CONCENTRATION 1.35 micromolar, read-out: PERCENT INHIBITION @): 50%
SMILES: O=C(NS(=O)(=O)C(F)(F)F)c1ccc(Cc2cn(C(c3ccccc3)c3ccccc3)c3ccc([N+](=O)[O-])cc23)cc1 [Example 55, N-{4-[(1-benzhydryl-5-nitro-1H-indol-3-yl)methyl]benzoyl}(trifluoro)methanesulfonamide]
- inhibition in vivo at 2 mg/kg ([1]; 2 mg/Kg): 7.02%
- inhibition in vivo at 10 mg/kg ([1]; 10 mg/Kg): 21.5%

- inhibition at 0.98 µM (cPLA2; CONCENTRATION 0.98 micromolar, read-out: PERCENT INHIBITION @): 50%
- inhibition at 1.2 µM (cPLA2; CONCENTRATION 1.2 micromolar, read-out: PERCENT INHIBITION @): 50%
SMILES: Cc1ccccc1S(=O)(=O)NC(=O)c1ccc(Cc2cn(C(c3ccccc3)c3ccccc3)c3ccc([N+](=O)[O-])cc23)cc1 [Example 56, N-{4-[(1-benzhydryl-5-nitro-1H-indol-3-yl)methyl]benzoyl}-2-methylbenzenesulfonamide]
- inhibition in vivo at 2 mg/kg ([1]; 2 mg/Kg): 4.22%
- inhibition in vivo at 10 mg/kg ([1]; 10 mg/Kg): 9.34%

- inhibition at 1.05 µM (cPLA2; CONCENTRATION 1.05 micromolar, read-out: PERCENT INHIBITION @): 50%
- inhibition at 1.38 µM (cPLA2; CONCENTRATION 1.38 micromolar, read-out: PERCENT INHIBITION @): 50%
- inhibition at 1.4 µM (cPLA2; CONCENTRATION 1.4 micromolar, read-out: PERCENT INHIBITION @): 50%
SMILES: Cc1ccccc1S(=O)(=O)NC(=O)c1ccc(Cc2cn(C(c3ccccc3)c3ccccc3)c3ccc(Br)cc23)cc1 [Example 57, N-{4-[(1-benzhydryl-5-bromo-1H-indol-3-yl)methyl]benzoyl}-2-methylbenzenesulfonamide]
- inhibition in vivo at 2 mg/kg ([1]; 2 mg/Kg): 10.4%
- inhibition in vivo at 10 mg/kg ([1]; 10 mg/Kg): 20.7%

- inhibition at 1.65 µM (cPLA2; CONCENTRATION 1.65 micromolar, read-out: PERCENT INHIBITION @): 50%
SMILES: O=C(NS(=O)(=O)C(F)(F)F)c1ccc(Cc2cn(C(c3ccccc3)c3ccccc3)c3ccc(Br)cc23)cc1 [Example 58, N-{4-[(1-benzhydryl-5-bromo-1H-indol-3-yl)methyl]benzoyl}(trifluoro)methanesulfonamide]
- inhibition in vivo at 2 mg/kg ([1]; 2 mg/Kg): 13.8%
- inhibition in vivo at 10 mg/kg ([1]; 10 mg/Kg): 9.96%

SMILES: O=C(Nc1cccc(C(=O)O)c1)C(=O)c1cn(Cc2ccc(Cc3ccccc3)cc2)c2ccccc12 [Example 59, 3-({2-[1-(4-benzylbenzyl)-1H-indol-3-yl]-2-oxoacetyl}amino)benzoic acid]
- inhibition at 6 µM (cPLA2; CONCENTRATION 6 micromolar, read-out: PERCENT INHIBITION @): 50%
- inhibition at 12.5 µM (cPLA2; read-out: PERCENT INHIBITION @): 90%
- inhibition in vivo at 5 mg/kg [1]: 2.9%

SMILES: O=C(Nc1cccc(C(=O)O)c1)C(=O)c1cn(C(c2ccccc2)c2ccccc2)c2ccccc12 [Example 61, 3-{[2-(1-benzhydryl-1H-indol-3-yl)-2-oxoacetyl]amino}benzoic acid]
- inhibition at 10 µM (cPLA2; CONCENTRATION 10 micromolar, read-out: PERCENT INHIBITION @): 50%
- inhibition at 12.5 µM (cPLA2; read-out: PERCENT INHIBITION @): 54%
- inhibition in vivo at 5 mg/kg [1]: 18.3%

SMILES: O=C(Nc1cccc(C(=O)O)c1)C(=O)c1cn(Cc2ccc(OCc3ccccc3)c(OCc3ccccc3)c2)c2ccccc12 [Example 63, 3-[(2-{1-[3,4-bis(benzyloxy)benzyl]-1H-indol-3-yl}-2-oxoacetyl)amino]benzoic acid]
- inhibition at 2.5 µM (cPLA2; CONCENTRATION 2.5 micromolar, read-out: PERCENT INHIBITION @): 70%
- inhibition at 7 µM (cPLA2; CONCENTRATION 7 micromolar, read-out: PERCENT INHIBITION @): 50%
- inhibition in vivo at 5 mg/kg [1]: 19.6%

- inhibition at 50 µM (cPLA2; read-out: PERCENT INHIBITION @): 47%
- inhibition at 72 µM (cPLA2; CONCENTRATION 72 micromolar, read-out: PERCENT INHIBITION @): 50%
- inhibition at 80 µM (cPLA2; CONCENTRATION 80 micromolar, read-out: PERCENT INHIBITION @): 50%
SMILES: O=C(O)c1cccc(NCc2cn(C(c3ccccc3)c3ccccc3)c3ccc(NC(=O)C4CCCC4)cc23)c1 [Example 65, 3-[({1-benzhydryl-5-[(cyclopentylcarbonyl)amino]-1H-indol-3-yl}methyl)amino]benzoic acid]
- inhibition in vivo at 5 mg/kg [1]: 2.84%

- inhibition at 70 µM (cPLA2; CONCENTRATION 70 micromolar, read-out: PERCENT INHIBITION @): 50%
- PERCENT INHIBITION @ (cPLA2; CONCENTRATION 200 micromolar): 19%
- inhibition at 200 µM (cPLA2; CONCENTRATION 200 micromolar, read-out: PERCENT INHIBITION @): 15%
SMILES: O=C(O)CN1CCN(Cc2cn(C(c3ccccc3)c3ccccc3)c3ccc(NC(=O)C4CCCC4)cc23)CC1 [Example 66, 2-[4-({1-benzhydryl-5-[(cyclopentylcarbonyl)amino]-1H-indol-3-yl}methyl)piperazino]acetic acid]
- inhibition in vivo at 5 mg/kg [1]: 25.3%

- inhibition at 100 µM (cPLA2; read-out: PERCENT INHIBITION @): 8%
- inhibition at 400 µM (cPLA2; read-out: PERCENT INHIBITION @): 31%
SMILES: O=C(O)CC1C(=O)NCCN1Cc1cn(C(c2ccccc2)c2ccccc2)c2ccc(NC(=O)C3CCCC3)cc12 (stereo not shown) [Example 67, 2-[1-({1-benzhydryl-5-[(cyclopentylcarbonyl)amino]-1H-indol-3-yl}methyl)-3-oxo-2-piperazinyl]acetic acid]
- inhibition in vivo at 5 mg/kg [1]: 10.8%

- inhibition at 100 µM (cPLA2; read-out: PERCENT INHIBITION @): 9%
- inhibition at 400 µM (cPLA2; read-out: PERCENT INHIBITION @): 18%
SMILES: O=C(Nc1ccc2c(c1)c(CNC(CO)C(=O)O)cn2C(c1ccccc1)c1ccccc1)C1CCCC1 (stereo not shown) [Example 68, 2-[({1-benzhydryl-5-[(cyclopentylcarbonyl)amino]-1H-indol-3-yl}methyl)amino]-3-hydroxypropanoic acid]
- inhibition in vivo at 5 mg/kg [1]: -4.3%

SMILES: Cc1ccc(S(=O)(=O)NC(=O)c2cccc(NC(=O)C(=O)c3cn(Cc4ccc(Cc5ccccc5)cc4)c4ccc(OCc5ccccc5)cc34)c2)cc1 [Example 76, 2-[1-(4-benzylbenzyl)-5-(benzyloxy)-1H-indol-3-yl]-N-[3-({[(4-methylphenyl)sulfonyl]amino}carbonyl)phenyl]-2-oxoacetamide]
- inhibition at 4 µM (cPLA2; CONCENTRATION 4 micromolar, read-out: PERCENT INHIBITION @): 50%
- inhibition in vivo at 5 mg/kg [1]: 14.8%

- inhibition at 48 µM (cPLA2; CONCENTRATION 48 micromolar, read-out: PERCENT INHIBITION @): 50%
- inhibition at 50 µM (cPLA2; read-out: PERCENT INHIBITION @): 60%
SMILES: O=C(O)Cc1cn(Cc2ccccc2)c2ccc(-c3cc4ccccc4o3)cc12 [Example 80, 2-[5-(1-benzofuran-2-yl)-1-benzyl-1H-indol-3-yl]acetic acid]
- inhibition in vivo at 5 mg/kg [1]: 10.2%

- inhibition at 6.25 µM (cPLA2; CONCENTRATION 6.25 micromolar, read-out: PERCENT INHIBITION @): 61%
- inhibition at 6.5 µM (cPLA2; CONCENTRATION 6.5 micromolar, read-out: PERCENT INHIBITION @): 50%
SMILES: O=C(O)c1ccc(CN2C(=O)S/C(=C/c3cn(CCCOc4cccc(Cc5ccccc5)c4)c4ccccc34)C2=O)cc1 [Example 82B, 4-{[5-((E)-{1-[3-(3-benzylphenoxy)propyl]-1H-indol-3-yl}methylidene)-2,4-dioxo-1,3-thiazolan-3-yl]methyl}benzoic acid]
- inhibition in vivo at 5 mg/kg [1]: 4.94%
